From patent publication US7799791B2, “Tetrahydrofuro(3,2-B) pyrrol-3-one derivatives as inhibitors of cysteine proteinases” (Amura Therapeutics Limited, priority 2007, dated 2010)
Where two headings read alike, the source gives them in different places.

Columns and labels:
[1] = Plasma incubations (human plasma stability); type: in vitro ADME; conditions: 37° C., 25 μM, percent remaining at 1 hour
Procedure: Human and rat plasma were purchased from Innovative Research Inc. (Southfield. Mich., USA). […] Aliquots were removed at 2 and 60 minutes and quenched with an equal volume of cold acetonitrile. After mixing vigorously, the precipitated protein matter was removed by filtration (Multiscreen Solvinert filter plates, Millipore, Bedford, Mass., USA) and the filtrate analysed by reverse phase HPLC with mass spectrometric detection, using single ion monitoring of the [M+H]^+ species. Metabolic turnover was determined by comparison of peak areas from the ion chromatograms of the parent compound at 2 and 60 minutes and expressed as percent remaining at 1 hour.

[2] = target: T1, Human recombinant cathepsin K (Homo sapiens, UniProt P43235); experiment: In vitro cathepsin Ki inhibition measurements; type: biochemical
T1 construct: purchased B. Turk, Josef, Stefan Institute, Ljubljana, Slovenia
T1 sequence (P43235 115-329): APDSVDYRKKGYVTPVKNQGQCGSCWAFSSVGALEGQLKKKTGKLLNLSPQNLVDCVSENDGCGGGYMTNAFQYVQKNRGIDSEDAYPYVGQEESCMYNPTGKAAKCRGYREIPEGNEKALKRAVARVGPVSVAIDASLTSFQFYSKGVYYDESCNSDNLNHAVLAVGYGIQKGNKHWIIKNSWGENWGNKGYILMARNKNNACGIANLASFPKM
Procedure: Stock solutions of substrate or inhibitor were made up to 10 mM in 100% dimethylsulfoxide (DMSO) (Rathburns, Glasgow, U.K.) and diluted as appropriately required. In all cases the DMSO concentration in the assays was maintained at less than 1% (vol./vol.). The equilibrium inhibition constants (Ki^ss) for each compound were measured under steady-state conditions monitoring enzyme activity as a function of inhibitor concentration. The values were calculated on the assumption of pure competitive behaviour (Cornish-Bowden, A. Fundamentals of enzyme kinetics Portland Press; 1995, 93-128.). Human recombinant cathepsin K (0.25 nM final; B. Turk, Josef, Stefan Institute, Ljubljana, Slovenia), was routinely assayed in 100 mM sodium acetate; pH 5.5 containing 1 mM EDTA, 10 mM L-cysteine and 1.8 μM Z-Leu-Arg-AMC ([S]=KM).
The apparent inhibition constant (Ki) for each compound was determined on the basis that inhibition was reversible and occurred by a pure-competitive mechanism. The Ki values were calculated, from the dependence of enzyme activity as a function of inhibitor concentration, by direct regression analysis (Prism v 3.02) using Equation 2 (Comish-Bowden, A., 1995.).
In situations where the apparent dissociation constant (Ki^app) approached the enzyme concentrations, the Ki^app values were calculated using a quadratic solution in the form described by Equation 3 (Morrison, J. F. Trends Biochem. Sci., 7, 102-105, 1982; Morrison, J. F. Biochim. Biophys. Acta. 185, 269-286, 1969; Stone, S. R. and Hofsteenge, J. Biochemistry, 25, 4622-4628, 1986).
Curves were fitted by non-linear regression analysis (Prism) using a fixed value for the enzyme concentration. Equation 4 was used to account for the substrate kinetics, where ‘Ki’ is the inhibition constant, ‘[So]’ is the initial substrate concentration and ‘KM^app’ is the apparent macroscopic binding (Michaelis) constant for the substrate (Morrison, 1982).

[3] = Table 1, read-out: In vitro Ki (nM) vs Cath K
[4] = prior art WO-A-02057270 examples, Table 2, read-out: Ki (nM) vs Human Cathepsin K

| Compound | Human Plasma Stability % rem. @ 1 h [1] | Ki [2, 3] | Ki [2, 4] |
| --- | --- | --- | --- |
| CO[C@H]1CN(C(=O)[C@@H](NC(=O)c2ccc(-c3csc(N4CCN(C)CC4)n3)cc2)C2CCCC2)[C@@H]2C(=O)CO[C@H]12 [Example 1, N-((S)-1-cyclopentyl-2-((3aS,6S,6aS)-6-methoxy-3-oxodihydro-2H-furo[3,2-b]pyrrol-4(5H,6H,6aH)-yl)-2-oxoethyl)-4-(2-(4-methylpiperazin-1-yl)thiazol-4-yl)benzamide] | 100% | 1.4 nM | – |
| CO[C@@H]1CN(C(=O)[C@@H](NC(=O)c2ccc(-c3csc(N4CCN(C)CC4)n3)cc2)C2CCCC2)[C@@H]2C(=O)CO[C@@H]21 [Example 2, N-((S)-1-cyclopentyl-2-((3aS,6R,6aS)-6-methoxy-3-oxodihydro-2H-furo[3,2-b]pyrrol-4(5H,6H,6aH)-yl)-2-oxoethyl)-4-(2-(4-methylpiperazin-1-yl)thiazol-4-yl)benzamide] | 98.2% | 1.9 nM | – |
| CC(C)C[C@H](NC(=O)c1ccc(-c2csc(N3CCN(C)CC3)n2)cc1)C(=O)N1CC[C@H]2OCC(=O)[C@H]21 [Example 3, N-((S)-4-methyl-1-oxo-1-((3aS,6aR)-3-oxodihydro-2H-furo[3,2-b]pyrrol-4(5H,6H,6aH)-yl)pentan-2-yl)-4-(2-(4-methylpiperazin-1-yl)thiazol-4-yl)benzamide] | 92.6% | 1.7 nM | – |
| CN1CCN(c2nc(-c3ccc(C(=O)N[C@@H](CC(C)(C)C)C(=O)N4CC[C@H]5OCC(=O)[C@H]54)cc3)cs2)CC1 [Example 4, N-((S)-4,4-dimethyl-1-oxo-1-((3aS,6aR)-3-oxodihydro-2H-furo[3,2-b]pyrrol-4(5H,6H,6aH)-yl)pentan-2-yl)-4-(2-(4-methylpiperazin-1-yl)thiazol-4-yl)benzamide] | 91.9% | 1.7 nM | – |
| CN1CCN(c2nc(-c3ccc(C(=O)N[C@H](C(=O)N4CC[C@H]5OCC(=O)[C@H]54)C4CCCC4)cc3)cs2)CC1 [Example 5, N-((S)-1-cyclopentyl-2-oxo-2-((3aS,6aR)-3-oxodihydro-2H-furo[3,2-b]pyrrol-4(5H,6H,6aH)-yl)-2-oxoethyl)-4-(2-(4-methylpiperazin-1-yl)thiazol-4-yl)benzamide] | 82.5% | 1.3 nM | – |
| CC(C)C[C@H](NC(=O)c1ccc(C(C)(C)C)cc1)C(=O)N1CC[C@H]2OCC(=O)[C@H]21 [Prior art compound 23, reference compound] | 75% | 87.4 nM | – |
| N-((S)-1-cyclopentyl-2-((3aS,6R,6aS)-6-methoxy-3-oxodihydro-2H-furo[3,2-b]pyrrol-4(5H,6H,6aH)-yl)-2-oxoethyl)-4-(2-(4-methylpiperazin-1-yl)thiazol-4-yl)benzamide [Example 2] | – | – | > 50000 nM |
| N-((S)-4-methyl-1-oxo-1-((3aS,6aR)-3-oxodihydro-2H-furo[3,2-b]pyrrol-4(5H,6H,6aH)-yl)pentan-2-yl)-4-(2-(4-methylpiperazin-1-yl)thiazol-4-yl)benzamide [Example 3] | – | – | > 4000 nM |
